From patent publication US7081984B1, “Non-linear optical devices and materials therefor” (Qinetiq Limited, priority 1999, dated 2006)
“Also recorded” adds a separate entry of the source. Where two headings read alike, the source gives them in different places. Blank lines part the entries; values can stand above or below the compound they belong to.

Experiments:
[1] = Kurtz and Perry assessment of phase matching properties; assay type: physicochemical; conditions: graded powders 550 μm to 40 μm, 12 ns pulses at 1064 nm, fixed input pulse energy
Protocol: The phase matching properties of those more promising materials which performed well in the initial screening have been evaluated using the well established Kurtz and Perry technique (J Appl Phys, 1968, 39, 3798). In this method the SHG intensity (λ=532 nm) is measured as a function of the particle size for a fixed input pulse energy. […] The consequence of this is that the harmonic fields can build up in amplitude thus making the material more desirable for SHG applications.
To perform the Kurtz and Perry test powdered samples of the materials were graded using a mechanical shaker set up with a set of standard sieves (550 μm to 40 μm). The graded powders were then mounted in a thin aluminium holder placed between two glass slides. The following criteria was used to ensure the validity of the method: r<L<D where, • r=average particle size • L=thickness of the powdered sample (i.e. thickness of the aluminium spacer) • D=diameter of the laser beam incident on the sample. In the present experiments, there was at least an order of magnitude difference between these parameters.
The same laser as before was used to provide 12 ns FWHM pulses at 1064 nm. […] The magnitude of the SHG signal was measured as the number of counts using an Optical Multichannel Analyser (OMA) with an intensified array. This was preferred to a photomultiplier tube as it enabled the presence of any fluorescence or abnormal spectral emissions from the sample, for example due to damage etc., to be determined.

[2] = Initial screening of SHG response of powdered samples at 1064 nm; assay type: physicochemical; conditions: ungraded powder between glass plates, pulsed Nd:YAG laser 1064 nm, green light judged by eye against ungraded urea or ADP
From the text: Samples of all of the materials prepared as described above were first subjected to an initial screening with the results shown in Table 1. For this examination ungraded (as to size) powdered samples of each material were sandwiched between two glass plates which were then held in the path of a pulsed Nd:YAG laser operating at 1064 nm. (Model SL804 from Spectron Laser Systems Ltd). The SHG response was judged by viewing the intensity of green light generated (viewed through laser goggles which passed green light but stopped the fundamental 1064 nm radiation). The SHG activity was qualitatively compared to that of a reference sample which was either ungraded urea or ammonium dihydrogen phosphate (ADP).

[3] = judged by eye
From the text: The capability for novel materials of the invention to achieve frequency doubling into the blue area of the spectrum was examined. The light source for this investigation was a MOPO (Master Oscillator Power Oscillator) model 730-10 pumped by GCR 270-10 Nd:YAG laser (supplied by Spectra Physics). The incident pulse width output from this laser ranged from 4 ns to 6 ns. Light of a specified wavelength was directed onto a sample sandwiched between two plates in a sample holder. In order to determine the energy which was incident on a sample for each test wavelength, the sample holder was movable in and out of the light beam and an energy meter was located behind the sample position so that the light beam would be directed onto the meter when a sample was not in position. The test wavelengths used were 950 nm, 850 nm, 800 nm and 780 nm. The energy meter was a Scientech AD30 meter employing a calorimetric detector type AC2501H supplied by Scientech.
Samples of the M4, M3 and M35 materials were tested for frequency doubling effect at each of the test wavelengths, the performance of each sample being judged qualitatively by eye by examination of the frequency doubled radiation scattered from the sample. These qualatative assessments were compared with that of a similarly prepared sample of urea having the same particle size as the materials of the invention. […] The M3 and M4 samples were ungraded while the M35 sample was a 212–300 μm graded sample.

[4] = crystals grown from solution by lowering temperature
Protocol: Crystals of M4, M35 and M3 were grown from solution by lowering the temperature of the saturated solutions. The crystal growth equipment consists of a heated tank of water into which the vessel containing the saturated solution of the material is held. The glass tank is heated through a UV block filter by an infra-red lamp. The temperature is controlled by a mercury contact thermometer. The glass tank is covered by aluminium foil to exclude UV in sunlight from entering the glass tank.
(§1) Crystals of M4 have been grown using the equipment described above, both from ethanol and IPA by reduction of temperature of the saturated solutions (12 g of M4 in 820 ml of ethanol) from 40° C. to 25° C. A seed crystal, which had been previously washed with a solvent was suspended from a stirrer and carefully introduced into the saturated solution. […] Several temperature decay rates were tried.
The solubility of M35 has been determined in isopropyl alcohol/water (10:1 ratio) mixture over a temperature range of 5° C. to 40° C.

[5] = Crystal stability on storage; assay type: physicochemical; conditions: on standing after removal from growing solution or in sealed container
[6] = transmission spectrum
[7] = Protocol: as §1
[8] = wavelength 780 nm, energy 16.7 mJ
[9] = wavelength 800 nm, energy 14.8 mJ
[10] = wavelength 850 nm, energy 12.3 mJ

Phase matching (SHG signal level at 532 nm as a function of particle size) [1]: phase matching materials
Compound: NC(N)=O [urea, reference compound]

Compound: thiomorpholinium 3,5-dihydroxybenzoate [TM35]
SHG Response [2]: slightly better than for urea

Compound: Morpholinium 4-hydroxycinnamate [Example M4HCA]
SHG Response [2]: greater than that of urea; also recorded: better than urea

Compound: Morpholinium 3-hydroxybenzoate [Example M3]
SHG Response [2]: slightly weaker than urea | Phase matching (SHG signal level at 532 nm as a function of particle size) [1]: does not decrease for increasing particle size | Frequency doubling compared with urea [3, 8]: Less | Frequency doubling compared with urea [3, 9]: Much less | Frequency doubling compared with urea [3, 10]: Less | Frequency doubling compared with urea ([3]; wavelength 950 nm, energy 9 mJ): Slightly less | SHG activity of grown crystals [4]: exhibit SHG activity

Compound: Morpholinium 3,5-dihydroxybenzoate [Example M35]
SHG Response [2]: slightly better than urea | Phase matching (SHG signal level at 532 nm as a function of particle size) [1]: does not decrease for increasing particle size | Frequency doubling compared with urea [3, 8]: better | Frequency doubling compared with urea [3, 9]: slightly less | Frequency doubling compared with urea [3, 10]: same or better | Frequency doubling compared with urea ([3]; wavelength 950 nm, energy 9 mJ): same or better | SHG activity of grown crystals [4]: high SHG activity | Stability of crystals [5]: stable and do not show any deterioration in quality | Optical transparency limit of single crystal [6]: ≥ 350 mm

Compound: N.O=P(O)(O)O [ADP, ammonium dihydrogen phosphate, reference compound]
Phase matching (SHG signal level at 532 nm as a function of particle size) [1]: phase matching materials

Compound: Morpholinium 3-fluoro-4-hydroxybenzoate [Example M3F4]
SHG Response [2]: slightly weaker than that of urea

Compound: thiomorpholinium 4-hydroxybenzoate [TM4]
SHG Response [2]: slightly better than for ADP | Stability of crystals [5]: unstable, with the crystals becoming opaque over time

Compound: dimorpholinium 2,3,5,6-tetrafluoro-4-hydroxybenzoate [Example M24F4]
SHG Response [2]: weaker than that of urea but better than for ADP

Compound: Morpholinium 4-hydroxybenzoate [Example M4]
SHG Response [2]: better than for urea | Phase matching (SHG signal level at 532 nm as a function of particle size) [1]: does not decrease for increasing particle size | Frequency doubling compared with urea [3, 8]: Slightly less | Frequency doubling compared with urea [3, 9]: Slightly less | Frequency doubling compared with urea [3, 10]: Slightly less | Frequency doubling compared with urea ([3]; wavelength 950 nm, energy 9 mJ): Better | SHG activity of grown crystals [4]: high SHG activity | Relative solubility ([7]; IPA compared with ethanol): less soluble in IPA | Amount in saturated solution ([7]; in 820 ml of ethanol, saturated solution, 40° C.): 12 g
